Test results from US20230085307A1, “PYRIDAZINONE COMPOUND AND HERBICIDE” (NISSAN CHEMICAL CORPORATION, priority 2019, published 2023).

test system: velvetleaf; test: Test Example 4: herbicidal effect by soil treatment (Table 19, symbol M); type: in vivo, velvetleaf (Abutilon theophrasti); conditions: amount of applied herbicide 320 g/ha
In short: (§1)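 Pre-emergence style soil spray: seeds under ~1.5 cm sterilized diluvial soil received a uniform coat of emulsion diluted to the predetermined herbicide amount. Greenhouse 25–30° C; readout at week three on previously defined criteria.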

Row | Compound | M: velvetleaf, herbicidal effect rating
1 | CCc1ccc(-c2sc3ccc(F)cc3c2-c2c(O)c(C)nn(C)c2=O)cc1 [2-207] | 5 (Herbicidal rate of 90% or more (almost completely withered))
2 | Cc1nn(C)c(=O)c(-c2c(-c3cccc(OCC(C)C)c3)sc3ccc(F)cc23)c1O [2-221] | 4 (Herbicidal rate of 70% or more and less than 90%)

test system: lambsquarters; test: Test Example 5: herbicidal effect by foliage application, plastic box (Table 20, symbol O); type: in vivo, lambsquarters (Chenopodium album); conditions: foliage application, 320 g/ha, evaluated three weeks after application
In short: (§2)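 Plants were sown into sterilized diluvial soil under about 1.5 cm cover and kept in a greenhouse at 25° C. to 30° C. Fourteen days on, foliage received an even spray of the diluted emulsion. Herbicidal or crop effect was judged three weeks afterwards.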

Row | Compound | herbicidal effect on O: lambsquarters (criteria 0-5)
3 | CCc1ccc(-c2sc3ccc(F)cc3c2-c2c(O)c(C)nn(C)c2=O)cc1 [2-207] | 5 (Herbicidal rate of 90% or more (almost completely withered))
4 | Cc1nn(C)c(=O)c(-c2c(-c3cccc(OCC(C)C)c3)sc3ccc(F)cc23)c1O [2-221] | 5 (Herbicidal rate of 90% or more (almost completely withered))

test system: persian speedwell; test: Test Example 5: herbicidal effect by foliage application, plastic box (Table 20, symbol R); type: in vivo, Persian speedwell (Veronica persica); conditions: foliage application, 320 g/ha, evaluated three weeks after application
In short: as §2

Row | Compound | herbicidal effect on R: persian speedwell (criteria 0-5)
5 | CCc1ccc(-c2sc3ccc(F)cc3c2-c2c(O)c(C)nn(C)c2=O)cc1 [2-207] | 5 (Herbicidal rate of 90% or more (almost completely withered))
6 | Cc1nn(C)c(=O)c(-c2c(-c3cccc(OCC(C)C)c3)sc3ccc(F)cc23)c1O [2-221] | 5 (Herbicidal rate of 90% or more (almost completely withered))

test system: green foxtail; test: Test Example 4: herbicidal effect by soil treatment (Table 19, symbol G); type: in vivo, green foxtail (Setaria viridis); conditions: amount of applied herbicide 320 g/ha
In short: as §1

Row | Compound | G: green foxtail, herbicidal effect rating
7 | CCc1ccc(-c2sc3ccc(F)cc3c2-c2c(O)c(C)nn(C)c2=O)cc1 [2-207] | 0 (Herbicidal rate of 5% or less (almost no effect))
8 | Cc1nn(C)c(=O)c(-c2c(-c3cccc(OCC(C)C)c3)sc3ccc(F)cc23)c1O [2-221] | 5 (Herbicidal rate of 90% or more (almost completely withered))

test system: green foxtail; test: Test Example 5: herbicidal effect by foliage application, plastic box (Table 20, symbol G); type: in vivo, green foxtail (Setaria viridis); conditions: foliage application, 320 g/ha, evaluated three weeks after application
In short: as §2

Row | Compound | herbicidal effect on G: green foxtail (criteria 0-5)
9 | CCc1ccc(-c2sc3ccc(F)cc3c2-c2c(O)c(C)nn(C)c2=O)cc1 [2-207] | 4 (Herbicidal rate of 70% or more and less than 90%)
10 | Cc1nn(C)c(=O)c(-c2c(-c3cccc(OCC(C)C)c3)sc3ccc(F)cc23)c1O [2-221] | 5 (Herbicidal rate of 90% or more (almost completely withered))

test system: blackgrass; test: Test Example 4: herbicidal effect by soil treatment (Table 19, symbol J); type: in vivo, blackgrass (Alopecurus myosuroides); conditions: amount of applied herbicide 320 g/ha
In short: as §1

Row | Compound | J: blackgrass, herbicidal effect rating
11 | CCc1ccc(-c2sc3ccc(F)cc3c2-c2c(O)c(C)nn(C)c2=O)cc1 [2-207] | 0 (Herbicidal rate of 5% or less (almost no effect))
12 | Cc1nn(C)c(=O)c(-c2c(-c3cccc(OCC(C)C)c3)sc3ccc(F)cc23)c1O [2-221] | 5 (Herbicidal rate of 90% or more (almost completely withered))

test system: late watergrass; test: Test Example 2: herbicidal activity, application during weed generation under submerged conditions (Table 17, symbol A); type: in vivo, late watergrass (Echinochloa oryzicola); conditions: AAH 320 g/ha; application during weed generation, submerged conditions
In short: (§3)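 Steps: fill Wagner pots with alluvial soil; add water to give 4 cm depth; sow the species mixed; grow under glass at 25–30° C.; at 1–2 leaves apply water-diluted emulsion formulation to the water surface at a fixed herbicide amount; score after 3 weeks.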

Row | Compound | herbicidal effect rating, A: late watergrass
13 | CCc1ccc(-c2sc3ccc(F)cc3c2-c2c(O)c(C)nn(C)c2=O)cc1 [2-207] | 3 (Herbicidal rate of 40% or more and less than 70%)
14 | Cc1nn(C)c(=O)c(-c2c(-c3cccc(OCC(C)C)c3)sc3ccc(F)cc23)c1O [2-221] | 5 (Herbicidal rate of 90% or more (almost completely withered))

test system: barnyard grass; test: Test Example 4: herbicidal effect by soil treatment (Table 19, symbol H); type: in vivo, barnyard grass (Echinochloa crus-galli); conditions: amount of applied herbicide 320 g/ha
In short: as §1

Row | Compound | H: barnyard grass, herbicidal effect rating
15 | CCc1ccc(-c2sc3ccc(F)cc3c2-c2c(O)c(C)nn(C)c2=O)cc1 [2-207] | 2 (Herbicidal rate of 20% or more and less than 40%)
16 | Cc1nn(C)c(=O)c(-c2c(-c3cccc(OCC(C)C)c3)sc3ccc(F)cc23)c1O [2-221] | 5 (Herbicidal rate of 90% or more (almost completely withered))

test system: Japanese bulrush; test: Test Example 2: herbicidal activity, application during weed generation under submerged conditions (Table 17, symbol B); type: in vivo, Japanese bulrush (Schoenoplectus juncoides); conditions: AAH 320 g/ha; application during weed generation, submerged conditions
In short: as §3

Row | Compound | herbicidal effect rating, B: Japanese bulrush
17 | CCc1ccc(-c2sc3ccc(F)cc3c2-c2c(O)c(C)nn(C)c2=O)cc1 [2-207] | 3 (Herbicidal rate of 40% or more and less than 70%)
18 | Cc1nn(C)c(=O)c(-c2c(-c3cccc(OCC(C)C)c3)sc3ccc(F)cc23)c1O [2-221] | 3 (Herbicidal rate of 40% or more and less than 70%)

test system: redroot pigweed; test: Test Example 4: herbicidal effect by soil treatment (Table 19, symbol N); type: in vivo, redroot pigweed (Amaranthus retroflexus); conditions: amount of applied herbicide 320 g/ha
In short: as §1

Row | Compound | N: redroot pigweed, herbicidal effect rating
19 | CCc1ccc(-c2sc3ccc(F)cc3c2-c2c(O)c(C)nn(C)c2=O)cc1 [2-207] | 5 (Herbicidal rate of 90% or more (almost completely withered))
20 | Cc1nn(C)c(=O)c(-c2c(-c3cccc(OCC(C)C)c3)sc3ccc(F)cc23)c1O [2-221] | 5 (Herbicidal rate of 90% or more (almost completely withered))

test system: oval-leafed pondweed; test: Test Example 2: herbicidal activity, application during weed generation under submerged conditions (Table 17, symbol C); type: in vivo, oval-leafed pondweed (Monochoria vaginalis); conditions: AAH 320 g/ha; application during weed generation, submerged conditions
In short: as §3

Row | Compound | herbicidal effect rating, C: oval-leafed pondweed
21 | CCc1ccc(-c2sc3ccc(F)cc3c2-c2c(O)c(C)nn(C)c2=O)cc1 [2-207] | 1 (Herbicidal rate of 5% or more and less than 20%)
22 | Cc1nn(C)c(=O)c(-c2c(-c3cccc(OCC(C)C)c3)sc3ccc(F)cc23)c1O [2-221] | 3 (Herbicidal rate of 40% or more and less than 70%)

test system: wild oat; test: Test Example 4: herbicidal effect by soil treatment (Table 19, symbol I); type: in vivo, wild oat (Avena fatua); conditions: amount of applied herbicide 320 g/ha
In short: as §1

Row | Compound | I: wild oat, herbicidal effect rating
23 | CCc1ccc(-c2sc3ccc(F)cc3c2-c2c(O)c(C)nn(C)c2=O)cc1 [2-207] | 0 (Herbicidal rate of 5% or less (almost no effect))
24 | Cc1nn(C)c(=O)c(-c2c(-c3cccc(OCC(C)C)c3)sc3ccc(F)cc23)c1O [2-221] | 0 (Herbicidal rate of 5% or less (almost no effect))

test system: southern crabgrass; test: Test Example 4: herbicidal effect by soil treatment (Table 19, symbol F); type: in vivo, southern crabgrass (Digitaria ciliaris); conditions: amount of applied herbicide 320 g/ha
In short: as §1

Row | Compound | F: southern crabgrass, herbicidal effect rating
25 | CCc1ccc(-c2sc3ccc(F)cc3c2-c2c(O)c(C)nn(C)c2=O)cc1 [2-207] | 3 (Herbicidal rate of 40% or more and less than 70%)
26 | Cc1nn(C)c(=O)c(-c2c(-c3cccc(OCC(C)C)c3)sc3ccc(F)cc23)c1O [2-221] | 5 (Herbicidal rate of 90% or more (almost completely withered))

test system: Italian ryegrass; test: Test Example 5: herbicidal effect by foliage application, plastic box (Table 20, symbol K); type: in vivo, Italian ryegrass (Lolium multiflorum); conditions: foliage application, 320 g/ha, evaluated three weeks after application
In short: as §2

Row | Compound | herbicidal effect on K: Italian ryegrass (criteria 0-5)
27 | CCc1ccc(-c2sc3ccc(F)cc3c2-c2c(O)c(C)nn(C)c2=O)cc1 [2-207] | 4 (Herbicidal rate of 70% or more and less than 90%)
28 | Cc1nn(C)c(=O)c(-c2c(-c3cccc(OCC(C)C)c3)sc3ccc(F)cc23)c1O [2-221] | 5 (Herbicidal rate of 90% or more (almost completely withered))
